This passage reports IC50 results from patent US12275745B2, “Therapeutic compounds and methods of use” (Genentech, Inc., priority 2021, dated 2025).

One test concerns the target TEAD4 (Homo sapiens, UniProt Q15561). Description: TR-FRET (Lipid HTRF) TEAD lipid pocket probe displacement assay, TEAD4. Format: binding. The note with it: His-tagged TEAD4, biotinylated lipid pocket probe, 4 hours. A general note: In TR-FRET formats the signal depends on donor and acceptor labels being close together.
A further test has as its target TEAD2 (Homo sapiens, UniProt Q15562). Description: biochemical.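 Note: TR-FRET competition assay with His-tagged TEAD protein and a biotinylated lipid pocket probe, where probe displacement by compound lowers the signal.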
In a further test the target is TEAD3 (Homo sapiens, UniProt Q99594). Put plainly: TR-FRET (Lipid HTRF) TEAD lipid pocket probe displacement assay, TEAD3. Format: binding. The note with it: His-tagged TEAD3, biotinylated lipid pocket probe, 4 hours.
Chain of TEAD3 (Q99594 whole entry, species assumed): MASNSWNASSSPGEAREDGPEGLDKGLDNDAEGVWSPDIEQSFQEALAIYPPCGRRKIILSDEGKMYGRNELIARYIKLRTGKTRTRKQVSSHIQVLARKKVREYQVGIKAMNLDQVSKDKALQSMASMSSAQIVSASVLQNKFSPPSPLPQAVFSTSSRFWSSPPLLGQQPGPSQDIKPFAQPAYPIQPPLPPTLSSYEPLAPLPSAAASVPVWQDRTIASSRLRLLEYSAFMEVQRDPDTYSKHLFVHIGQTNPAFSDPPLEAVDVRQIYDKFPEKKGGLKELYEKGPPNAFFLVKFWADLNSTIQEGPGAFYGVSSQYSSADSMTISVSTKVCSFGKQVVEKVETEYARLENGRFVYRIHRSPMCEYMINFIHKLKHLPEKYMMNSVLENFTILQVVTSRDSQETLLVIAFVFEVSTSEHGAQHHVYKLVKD
A further test addresses TEAD1 (Homo sapiens, UniProt P28347). Put plainly: TR-FRET (Lipid HTRF) TEAD lipid pocket probe displacement assay, TEAD1. The class given is binding. The note with it: His-tagged TEAD1, biotinylated lipid pocket probe, 4 hours.

The structures appear in SMILES notation.

Chain of TEAD1 (P28347 whole entry, species assumed): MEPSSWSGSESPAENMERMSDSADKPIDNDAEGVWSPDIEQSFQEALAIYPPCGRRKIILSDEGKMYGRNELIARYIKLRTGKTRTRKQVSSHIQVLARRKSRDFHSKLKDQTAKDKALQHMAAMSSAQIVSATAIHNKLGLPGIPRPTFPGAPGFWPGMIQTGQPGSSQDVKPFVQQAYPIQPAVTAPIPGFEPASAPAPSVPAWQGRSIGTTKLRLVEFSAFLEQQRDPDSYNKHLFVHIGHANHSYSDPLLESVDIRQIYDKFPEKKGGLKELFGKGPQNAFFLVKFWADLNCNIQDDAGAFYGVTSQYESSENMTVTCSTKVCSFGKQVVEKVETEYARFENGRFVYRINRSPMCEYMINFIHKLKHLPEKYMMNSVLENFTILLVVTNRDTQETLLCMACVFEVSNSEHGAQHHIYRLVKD
Chain of TEAD4 (Q15561 whole entry, species assumed): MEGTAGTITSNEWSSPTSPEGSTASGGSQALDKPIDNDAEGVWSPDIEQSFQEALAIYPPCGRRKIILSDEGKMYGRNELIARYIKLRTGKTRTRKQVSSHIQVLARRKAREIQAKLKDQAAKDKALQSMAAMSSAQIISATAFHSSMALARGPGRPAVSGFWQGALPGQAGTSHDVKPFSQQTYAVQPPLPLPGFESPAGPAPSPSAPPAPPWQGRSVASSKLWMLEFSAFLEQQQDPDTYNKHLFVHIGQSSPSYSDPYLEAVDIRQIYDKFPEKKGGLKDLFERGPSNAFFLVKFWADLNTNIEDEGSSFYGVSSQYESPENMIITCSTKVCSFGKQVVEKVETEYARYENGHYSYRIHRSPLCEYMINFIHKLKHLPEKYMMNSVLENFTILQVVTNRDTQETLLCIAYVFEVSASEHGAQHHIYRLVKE
Chain of TEAD2 (Q15562 whole entry, species assumed): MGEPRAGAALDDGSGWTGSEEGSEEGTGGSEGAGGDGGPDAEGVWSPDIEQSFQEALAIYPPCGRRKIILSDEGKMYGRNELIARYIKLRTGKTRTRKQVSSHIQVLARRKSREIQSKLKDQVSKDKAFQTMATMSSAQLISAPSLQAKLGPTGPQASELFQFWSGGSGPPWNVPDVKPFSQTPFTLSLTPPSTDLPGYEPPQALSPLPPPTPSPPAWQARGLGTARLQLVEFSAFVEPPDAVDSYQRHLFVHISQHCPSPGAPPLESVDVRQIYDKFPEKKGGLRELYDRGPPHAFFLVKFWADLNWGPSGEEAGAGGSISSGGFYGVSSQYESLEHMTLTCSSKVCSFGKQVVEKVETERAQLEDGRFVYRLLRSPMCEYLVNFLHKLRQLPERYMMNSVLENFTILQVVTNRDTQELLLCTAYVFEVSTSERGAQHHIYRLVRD
Procedure for TEAD1: (§1) His-tagged TEAD proteins are pre-incubated with TEAD project compounds for 30 minutes or 4 hours at room temperature. Biotinylated lipid pocket probes are then added to the TEAD/Compound mixture and incubated for 60 minutes at room temperature. The lipid pocket probe competes with the test compound for the TEAD lipid pocket until equilibrium is reached. After 60 minutes, Europium labelled anti-His (Perkin Elmer #AD0110) and XL665 labelled streptavidin (CIS Bio 610SAXAC) are added to the TEAD/test compound/lipid pocket mixture and incubated for 30 minutes or 4 hours. TR-FRET values are then measured using an EnVision multi-label plate reader (Perkin Elmer Cat #2104-001 0A.) If the lipid pocket probe binds to TEAD as expected, a TR-FRET signal results from the proximity of anti-His Eu and XL665. If a TEAD lipid pocket binder such as binds and displaces the lipid pocket probe, the disruption of the TEAD:probe interaction results in a decrease in TR-FRET signal. The potency of compounds as TEAD lipid pocket binders is determined by IC50 value generated using a non-linear 4 parameter curve fit.
Procedure for TEAD4: as §1

Usually IC50 stands for the concentration at which inhibition is half-maximal. Read a low IC50 as higher potency. Turning to `C=CC(=O)NCc1cc(-c2ccc(OC(F)(F)F)cc2)c2ncn(C)c2c1[C@H](C)O` (single isomer, unassigned) [Compound 33], the IC50 at TEAD4 was 79 nM; against TEAD2, 7.8 nM; at TEAD3, 260 nM; at TEAD1 it was 140 nM.

In the case of `C=CC(=O)NCc1cc(-c2ccc(OC(F)(F)F)cc2)c2ncn(C(F)F)c2c1CO` [Compound 39, N-[[3-(difluoromethyl)-4-(hydroxymethyl)-7-[4-(trifluoromethoxy)phenyl]benzimidazol-5-yl]methyl]prop-2-enamide], the IC50 came out at 24.5 nM on TEAD4, 9 nM on TEAD2, 50.5 nM at TEAD3 and 8 nM at TEAD1.

Consider `C=CC(=O)N(C)Cc1nc(-c2ccc(OC(F)(F)F)cc2)c2ncsc2n1` [Compound 11, N-methyl-N-[[7-[4-(trifluoromethoxy)phenyl]thiazolo[5,4-d]pyrimidin-5-yl]methyl]prop-2-enamide], for which the IC50 turned out to be 8.1 nM at TEAD4, 100 nM against TEAD2, 74 nM on TEAD3 and 78 nM at TEAD1.

`O=C(C1=CCC1)N1CC(c2cc(-c3ccc(OC(F)(F)F)cc3)c3nccnc3c2[C@@H](O)CO)C1` [Compound 86, (R)-Cyclobut-1-en-1-yl(3-(5-(1,2-dihydroxyethyl)-8-(4-(trifluoromethoxy)phenyl)quinoxalin-6-yl)azetidin-1-yl)methanone]: the IC50 turned out to be 32 nM at TEAD4, 38 nM against TEAD2, 230 nM on TEAD3 and 120 nM on TEAD1.

For the molecule `Cn1cnc2c(-c3ccc(OC(F)(F)F)cc3)cn(C3CN(C(=O)/C=C/CO)C3)c(=O)c21` [Compound 137, (E)-5-(1-(4-Hydroxybut-2-enoyl)azetidin-3-yl)-3-methyl-7-(4-(trifluoromethoxy)phenyl)-3,5-dihydro-4H-imidazo[4,5-c]pyridin-4-one], the IC50 is 14 nM at TEAD4, 94 nM against TEAD2, 95 nM on TEAD3 and 75 nM on TEAD1.

Take `C=CC(=O)NCc1cc(-c2ccc(OC(F)(F)F)cc2)c2ncn(C)c2c1Cc1cn[nH]c1` [Compound 34, N-[[3-methyl-4-(1H-pyrazol-4-ylmethyl)-7-[4-(trifluoromethoxy)phenyl]benzimidazol-5-yl]methyl]prop-2-enamide]: the IC50 at TEAD4 came to 62 nM; at TEAD2, 59 nM; at TEAD3, 3600 nM; on TEAD1, 190 nM.

`C=CC(=O)NCc1nc(-c2ccc(OC(F)(F)F)cc2)c2ncn(C)c2c1CO` [Compound 73, N-((7-(hydroxymethyl)-1-methyl-4-(4-(trifluoromethoxy)phenyl)-1H-imidazo[4,5-c]pyridin-6-yl)methyl)acrylamide]: the IC50 on TEAD4 was found to be 39 nM; on TEAD2 it was 40 nM; on TEAD3 it was 220 nM; on TEAD1, 58 nM.

In the case of `C=C(F)C(=O)N1CC(c2cc(-c3ccc(OC(F)(F)F)cc3)c3ncn(C)c3c2)C1` [Compound 145, 2-Fluoro-1-(3-(1-methyl-4-(4-(trifluoromethoxy)phenyl)-1H-benzo[d]imidazol-6-yl)azetidin-1-yl)prop-2-en-1-one], the IC50 on TEAD4 is 12 nM; on TEAD2 it was 19 nM; at TEAD3, 240 nM; at TEAD1 it was 6.9 nM.

For `C=CC(=O)NCc1cc(-c2ccc(OC(F)(F)F)cc2)c2cccnc2c1C` [Compound 43, N-[[8-methyl-5-[4-(trifluoromethoxy)phenyl]-7-quinolyl]methyl]prop-2-enamide], the IC50 on TEAD4 worked out at 16 nM; against TEAD2, 9.8 nM; on TEAD3, 22 nM; on TEAD1, 10 nM.

As to `C=CC(=O)N(C)Cc1cc(-c2ccc(OC(F)(F)F)cc2)c2ncccc2c1[C@@H](O)CO` (single isomer, unassigned) [Compound 52], the half-maximal inhibitory concentration (IC50) at TEAD4 is 43 nM; against TEAD2, 46 nM; at TEAD3, 79 nM; on TEAD1, 25 nM.
